According to patent publication US20120135089A1, “E3 LIGASE INHIBITORS” (priority 2009, published 2012):
Structures can show the parent of a compound that is named as a salt. Non-standard residues stand in square brackets, D forms with d. Residues, ends and D or L forms follow the SMILES beside them. *: point of attachment. Nle = CCCC[C@H](N)C(=O)O; Cbz = O=C(OCc1ccccc1)*

How the values were obtained:
MdmX = assay: etoposide-induced MdmX degradation in MCF7 cells (Western blot); assay type: cell-based, human; conditions: etoposide 30 μg/ml, 16 hours
Description: (§1) Cells were plated in 384-well format and treated with MG132 (2 hours) or cycloheximide (30 minutes). Steadylite luminescence buffer (PerkinElmer) was added and the relative luminescence levels determined on a Victor3 Plate Reader. Each graph represents the median of 5 replicates normalized to a no treatment control, and one standard deviation is shown. […] The graphs and EC50 values were determined using Graphpad PRISM®. […] U2OS, RKO, and HCT116 cells (p53 wild-type) were incubated with 5 μg/ml (14 μM) of MEL23, 5 μg/ml (15 μM) of MEL24, or 10 μM of MG132 for 6 hours. Cells were lysed and analyzed by Western blotting using anti-Mdm2, anti-p53, and anti-eIF4E antibodies. NT indicates a no treatment control. […] MCF7 cells (p53 wild-type) were incubated with 30 μg/ml (51 μM) etoposide alone or in combination with 50 μM AlIn or 5 μg/ml (14 μM) MEL23, or 5 μg/ml (15 μM) MEL24 for 16 hours. Cells were lysed and analyzed by Western blotting using anti-MDMX and anti-actin antibodies.
(§2) Cells were seeded and treated with the indicated compound(s). Cells were lysed after each time point in a buffer of 50 mM TrisHCl pH 7.5, 200 mM NaCl, 0.5% NP-40, and 1 complete mini EDTA-free protease inhibitor cocktail tablet per 10 mL of buffer (Roche, Cat. No. 8360170). Protein content was quantified using a Biorad protein assay reagent (Bio-Rad Laboratories, Hercules, Calif., Cat. No. 500-0006). SDS sample buffer was added to the samples, and the mixture was boiled for 5 minutes. Equal amounts of protein were resolved on a 1D SDS-PAGE gel. Following separation proteins were transferred to nitrocellulose membrane, blocked with 5% milk, and then incubated with primary antibody overnight at 4° C. The membrane was incubated with secondary-HRP antibody for 45 minutes at room temperature and developed with SuperSignal West Pico Substrate (Pierce, Rockford, Ill., Cat. No. 34080).

p53 ubiquitination = assay: cell-based p53 ubiquitination assay in H1299 cells; set-up: species or system human; conditions: H1299 transfected with p53, Mdm2, ubiquitin; 10 μg/ml pre-treatment, 10 μM MG132
Description: To obtain the results shown in FIG. 4A, Mdm2-luciferase cells were transfected with ubiquitin-HA and treated 8 hours later with 10 μg/ml (28 μM) MEL23, 10 μg/ml (31 μM) MEL24, or a DMSO control. After 16 hours, cells were additionally treated with 10 μM MG132 or a DMSO control. After 3 hours, cells were lysed and immunoprecipitated for 3 hours with anti-HA affinity matrix. Total lysates and immunoprecipitated samples were analyzed by Western blotting using anti-Mdm2 antibody. NT indicates a no treatment control. […] After 8 hours, cells were treated with 10 μg/ml (28 μM) MEL23, 10 μg/ml (31 μM) MEL24, or a DMSO control. After 16 hours, cells were additionally treated with 10 μM MG132 or a DMSO control. After 3 hours cells were lysed and analyzed by Western blotting using anti-p53 antibody. “p53-Ub” indicates the slower migrating species of the protein that are the ubiquitin-conjugated forms.
To test the effects of the MEL compounds on p53 ubiquitination, H1299 cells were transfected with plasmids expressing p53, Mdm2, and ubiquitin and pre-treated with 10 μg/ml MEL23 or MEL24, followed by treatment with 10 μM MG132. Ubiquitination of p53 was analyzed by Western blotting. […] In fact, the half-life of p53 increased from an hour to greater than 6 hours with 5 μg/ml MEL23 treatment (FIG. 32). Thus, treatment with MEL23 and MEL24 inhibits ubiquitin conjugation to Mdm2 and p53.

[1] = biological target: T1, Mdm2-luciferase fusion protein (Homo sapiens, UniProt Q00987); assay: cell-based Mdm2 auto-ubiquitination luminescence assay, Mdm2-luciferase cell line; conditions: 384-well format
T1 construct: Using full-length Mdm2 allowed for the presence of all domains of Mdm2; expressed in transfected cells
Description: as §1
The Mdm2-luciferase cell line was seeded at 7,500 cells per well, in 384-well white plates (PerkinElmer, Waltham, Mass., Cat. No. 6007688), in 27 μl of media (DMEM with FBS and P/S). Assay plates with cells were incubated at 37° C. overnight to allow cells to adhere. After 24 hours, 2 μl from the ‘mother’ plate (4 mg/ml) was transferred to a ‘daughter plate’ containing 148 μl media in order to dilute the compound 1:75. Next, 3 μl from each well of the ‘daughter plates’ was added to triplicate assay plates for a final concentration of 5.33 μg/ml. Assay plates were incubated at 37° C. for 2 hours. Then the cells were lysed with the addition of 30 μl of luminescence buffer (PerkinElmer, Cat. No. 6016989), and the plates were incubated at room temperature for 30 minutes before being analyzed on a Victor3 Plate Reader (PerkinElmer) for luminescence. […] All repurchased compounds were tested in a 2-fold dilution series via the same protocol as the primary screening. All transfers were conducted using a BioMek (Beckman Coulter, Fullerton, Calif.). […] This was determined by comparing the negative control, no treatment, to the positive control, 10 μM MG132.
To identify Mdm2 E3 ligase inhibitors, a high-throughput cellular assay to measure changes in Mdm2 auto-ubiquitination and degradation was designed. This assay took advantage of the fact that Mdm2 can regulate itself in cells through ubiquitination and degradation (8). Two fusion proteins were constructed for the assay: (a) a wild-type Mdm2-luciferase fusion protein, which can auto-ubiquitinate and thereby target itself for degradation; and (b) a mutant Mdm2(C464A)-luciferase fusion protein. Both fusion proteins were constructed with luciferase N-terminal to Mdm2. The C464A mutation disrupts a metal binding site in the RING domain, thereby preventing Mdm2 E3 ligase activity (8). Small molecules that increase the luminescence of the Mdm2-luciferase fusion protein without increasing the luminescence of the Mdm2(C464A)-luciferase fusion protein are likely inhibiting Mdm2 E3 ligase activity or the proteasomal degradation of Mdm2. Alternatively, small molecules that increase the luminescence of both fusion proteins are likely affecting transcription, translation, or have a general cellular impact that is not dependent on the E3 ligase activity of Mdm2 or proteasomal degradation.

Mdm2 and p53 levels = assay: Western blot of Mdm2 and p53 protein levels in cell lines; assay type: cell-based, human; conditions: 6 hours; for p53 levels in RKO and RKO-E6 cells: isogenic RKO and RKO-E6 (HPV-E6) cells
Description: as §1
(§3) H1229 cells were transfected with Mdm2-Flag or remained untransfected. Cells were treated with 5 μg/ml (14 μM) MEL23, 5 μg/ml (15 μM) MEL24, 10 μM MG132, or 1 μg/ml of doxorubicin for 6 hours. Cells were lysed and analyzed by Western blotting using anti-Mdm2 and anti-actin antibodies. The lower band indicated with a star seen with the Mdm2 antibody is a non-specific band. NT indicates a no treatment control. […] RKO and RK0-E6 cells were treated with 5 μg/ml (14 μM) MEL23, 5 μg/ml (15 μM) MEL24, 10 μM MG132, 0.5 μg/ml doxorubicin, 0.5 μg/ml camptothecin or 25 μg/ml Etoposide for 6 hours. Cells were lysed and analyzed by Western blotting using anti-Mdm2, anti-p53, and anti-actin antibodies. The lower band indicated with a star seen with the anti-Mdm2 antibody is a non-specific band. […] RKO cells were treated with 5 μg/ml (14 μM) MEL23, 5 μg/ml (15 μM) MEL24, 10 μM MG132 or 2 μg/ml doxorubicin for 6 hours. Cells were lysed and analyzed by Western blotting using anti-Mdm2, anti-p53, anti-phospho-Ser15 p53, and anti-eiF4E antibodies.
as §2
Cells were lysed and analyzed by Western blotting using anti-Mdm2, anti-p53, and anti-actin antibodies. The lower band seen with the Mdm2 antibody is a non-specific band. NT indicates no treatment control.
Referring now to FIG. 28e, endogenous Mdm2 and p53 protein levels with MEL17 treatment are shown. Briefly, U2OS, RKO, and HCT116 cells (p53 wild-type) were incubated with 5 μg/ml of MEL17 or 10 μM of MG132 for 6 hours. Cells were lysed and analyzed by Western blotting using anti-Mdm2, anti-p53, and anti-actin antibodies. The lower band seen with the Mdm2 antibody is a non-specific band.

[2] = system: p53-Ser15 phosphorylation; assay: p53-Ser15 phosphorylation in RKO cells (Western blot); assay type: cell-based, human; conditions: 6 hours
Description: as §3, §2

T1 sequence (Q00987 whole entry, the tested form may be a part): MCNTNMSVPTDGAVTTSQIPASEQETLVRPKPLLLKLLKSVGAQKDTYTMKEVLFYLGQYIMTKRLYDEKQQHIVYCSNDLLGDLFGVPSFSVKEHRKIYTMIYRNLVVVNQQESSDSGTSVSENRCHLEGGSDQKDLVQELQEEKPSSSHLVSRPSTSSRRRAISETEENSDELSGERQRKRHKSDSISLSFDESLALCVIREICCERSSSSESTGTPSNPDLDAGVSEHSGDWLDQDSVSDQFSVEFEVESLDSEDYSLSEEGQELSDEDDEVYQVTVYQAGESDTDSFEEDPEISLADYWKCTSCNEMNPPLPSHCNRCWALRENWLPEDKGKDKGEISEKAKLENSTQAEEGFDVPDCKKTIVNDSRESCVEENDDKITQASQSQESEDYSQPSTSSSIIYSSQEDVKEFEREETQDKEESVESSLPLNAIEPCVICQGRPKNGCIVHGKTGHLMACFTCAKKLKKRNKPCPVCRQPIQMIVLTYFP

## CCCC[C@@H](C=O)NC(=O)[C@H](CC(C)C)NC(=O)[C@H](CC(C)C)NC(C)=O [ALLN, N-Acetyl-Leu-Leu-Nle-CHO, reference compound] (Ac-Leu-Leu-[Nle]-aldehyde)
MdmX
  etoposide-induced MdmX degradation: degradation could be prevented

## CC(C)C[C@@H](C=O)NC(=O)[C@H](CC(C)C)NC(=O)[C@H](CC(C)C)NC(=O)OCc1ccccc1 [MG132, Z-Leu-Leu-Leu-aldehyde, reference compound] (Cbz-Leu-Leu-Leu-aldehyde)
p53 ubiquitination
  p53 ubiquitination in cells: significant increase in p53 ubiquitination
[1]
  luminescence of the Mdm2-luciferase cell line: increased the levels of the Mdm2-luciferase protein
Mdm2 and p53 levels
  p53 levels in RKO and RKO-E6 cells: increased p53 in both cell lines

## CC[C@@]1(O)C(=O)OCc2c1cc1n(c2=O)Cc2cc3ccccc3nc2-1 [camptothecin, reference compound]
Mdm2 and p53 levels
  p53 levels in RKO and RKO-E6 cells: increased p53 in both cell lines

## C[C@@H]1C[C@@H]([C@H](O)CC2CC(=O)NC(=O)C2)C(=O)[C@@H](C)C1 [cycloheximide, reference compound]
[1]
  luminescence of the Mdm2-luciferase cell line: selectively decreased the luminescence of the Mdm2-luciferase protein

## COc1cccc2c1C(=O)c1c(O)c3c(c(O)c1C2=O)C[C@@](O)(C(=O)CO)C[C@@H]3O[C@H]1C[C@H](N)[C@H](O)[C@H](C)O1 [doxorubicin, doxorubicin hydrochloride, reference compound]
Mdm2 and p53 levels
  p53 levels in RKO and RKO-E6 cells: increased p53 in both cell lines
Mdm2 and p53 levels; p53-null H1299 cells
  levels of endogenous and ectopically expressed Mdm2: no effect on Mdm2 levels
[2]
  phosphorylation of p53 at serine-15: strongly induced

## COc1cc([C@@H]2c3cc4c(cc3[C@@H](O[C@@H]3O[C@@H]5CO[C@@H](C)O[C@H]5[C@H](O)[C@H]3O)[C@H]3COC(=O)[C@H]23)OCO4)cc(OC)c1O [etoposide, reference compound]
MdmX
  etoposide-induced MdmX degradation: MdmX levels decreased substantially
Mdm2 and p53 levels
  p53 levels in RKO and RKO-E6 cells: increased p53 in both cell lines
